For data set [1] the following is noted: native sucralfate, USP specification; cited from earlier work.
A short description of data set [2]: Aluminum release in simulated gastrointestinal fluids. The data set is classed as physicochemical.
Data set [3] in a line: Glucose barrier test on mucin-coated membrane in Franz cell. Also on record: species or system porcine. The protocol: To examine the barrier properties of pastes formed from the new hydratable compositions in vitro, a mucin-coated membrane was prepared to mimic the mucus surface of the intestine. Specifically, a cellulose nitrate membrane (pore size: 0.2 μm, Whatman, Germany) was incubated in a 3% w/v porcine stomach mucin (SigmaAldrich, USA) solution in PBS (pH 7.4) and gently shaken for 2 hours at room temperature. The membrane was washed with distilled deionized water (DDW, pH 5.5) to remove the excess mucin solution. The mucin-coated membranes were used within 1 hour following preparation.
To measure the thickness of the mucin layer, the mucin-coated membrane was lyophilized and imaged using scanning electron microscope (SEM) and the thickness of randomly selected positions was examined (average mucin layer thickness: ˜100 μm). To test the nutrient barrier properties, 10 mg of sucralfate or AF-LuCI was added evenly to a mucin-coated membrane and vertically tilted for 1 minute. […]
The permeation tests were performed in triplicate for each material. The glucose concentration was measured using high performance liquid chromatography (HPLC, Agilent, USA) with an analytical C18 column (Zorbax Eclipse XDB-C18, Agilent). […]

The nature of data set [4]: Thickness of paste layer on mucus-coated cellulose nitrate membrane. How it is done: Five hundred milligrams of AF-LuCI (excess) was added onto mucus-coated cellulose nitrate membrane (disk shape with 2 cm diameter) and DDW (pH 5.5), SGF (pH 1.0), or SIF (pH 6.5) was added immediately. After AF-LuCI becomes a paste and flow to form a layer (3-5 minutes), supernatant was removed and the paste-coated membrane was quickly frozen in −80° C. freezer to measure the thickness. The thickness of the mucus-coated cellulose nitrate membrane without AF-LuCI was separately measured as a baseline.

For data set [5], the system named is normal Sprague-Dawley (SD) rats. Briefly: OGTT with sucralfate. The data set is classed as in vivo, rat. An excerpt:
In contrast, sucralfate selectively binds to ulcerated mucosa where the bicarbonate secretion is malfunctioned (i.e. acidic), while on bicarbonate-neutralized healthy mucosa sucralfate forms loosely bound discrete solid aggregates attached on the surface rather than forming a continuous layer. […] The neutralized pH on mucus surfaces also compromised the barrier function of sucralfate due to the change of rheological properties.

Another data set has as its system Sprague-Dawley (SD) rats. The data set can be described thus: microCT imaging of coating in the GI tract after gavage. The data set is classed as in vivo. The following applies: gavage into the stomach, AF-LuCI 450 mg/kg rat, imaged after 1 hr. The protocol: Sprague-Dawley (SD) rats were gavaged into the stomach with hydrated AF-LuCI pastes and imaged using micro-computed tomography (microCT). AF-LuCI pastes could be visualized on gastro-intestinal tissues without additional contrast agents owing to the presence of aluminum. For these experiments, rats were fasted overnight and gavaged directly into the stomach with 450 mg/kg rat of AF-LuCI paste hydrated in 0.9 w/v % normal saline solution. After 1 hr and 5 hr, the rats were anesthetized using isoflurane and imaged using microCT. […] FIG. 18A is a coronal plane view of SD rats gavaged with AF-LuCI 1 hr before the imaging. AF-LuCI formed a layer in stomach, duodenum and proximal intestine. FIGS. 18B and 18C are 3-dimensional views of SD rats gavaged with AF-LuCI (FIG. 18B) 1 hr and (FIG. 18C) 5 hr before the microCT imaging. AF-LuCI is attached on stomach, duodenum and proximal intestine at least for 5 hrs after gavage while sucralfate only formed sparsely scattered aggregates on the healthy mucosa

Data set [6] in a line: Degree of polymerization of PAC by titration. The data set is classed as physicochemical. The following applies: native sucralfate. The protocol: Experiments were performed to determine the degree of polymerization in AF-LuCI by using the titration-based methods as described in Nail, S. L., White, J. L. & Hem, S. L. Structure of Aluminum Hydroxide Gel I: Initial Precipitate. Journal of Pharmaceutical Sciences 65, 1188-1191 (1976); and Hem, J. D. & Roberson, C. E. Form and stability of aluminum hydroxide complexes in dilute solution. Geol Surv Water-Supply Pap(US)(United States) (1967). The degree of polymerization of PACs in AF-LuCI and sucralfate molecule was determined using titration method based on the reversible protonation of hydroxo linkages in the PAC backbone. Approximately 10 mg of AF-LuCI were treated with 0.1N, 0.2N, 0.3N, 0.4N and 0.5N HCl solutions in different tubes. The samples were vortexed for 5 seconds followed by 1-hour incubation. The supernatant of each sample was then collected and the pH was measured using a pH meter. The same procedures were performed with sucralfate. The pH of the HCl solutions was measured as the control group and the difference between the control and the treated groups was calculated. The difference in pH corresponds to the proton consumption and the amount of hydroxo linkages that were then used to calculate the number of aluminum per molecule.

Data set [7] is described as follows: Dissolution in NaCl solutions. The data set is classed as physicochemical. The following applies: saturated NaCl solutions (~0.35 g/ml in water). The text has this: […] This is a characteristic behavior of liquid complex coacervate system (See Wang, Q. & Schlenoff, J. B. The Polyelectrolyte Complex/Coacervate Continuum. Macromolecules 47, 3108-3116 (2014); de Kruif, C. G., Weinbreck, F. & de Vries, R. Complex coacervation of proteins and anionic polysaccharides. Current Opinion in Colloid & Interface Science 9, 340-349 (2004); Veis, A. & Aranyi, C. PHASE SEPARATION IN POLYELECTROLYTE SYSTEMS. I. COMPLEX COACERVATES OF GELATIN. J. Phys. Chem. 64, 1203-1210 (1960)).

As to sucralfate, in data set [1], the “USP regulation on the aluminum content” value is reported as 15.5-18.5 w/w % of the total weight. The “release of original aluminum content” value in data set [2] (exposed to an acidic fluid, e.g. gastric fluid, for AF-LuCI relative to the aluminum content of commercial sucralfate) was “about 15.0 w/w %”. Besides, the release of aluminum in data set [2] (simulated gastric fluid (SGF, pH 1.0)) was 15 w/w % of total aluminum content. For the same substance, in data set [3] (SGF, 10 mg on membrane, 120 g/L glucose, 5 minutes), the glucose penetration blocked was around 60%. This substance also came in with a glucose blocked in data set [3] (applied on mucus-coated membrane in pH 1.0, then solution of pH 4.0 added) of 16.5%. Further, the thickness of layer in data set [4] (SGF (pH 1.0)) is around 250 μm. Further, the layer formation entry in data set [4] (distilled water or SIF) was “did not form any layer”. Moreover, in data set [5], the “area under curve (AUC) in OGTT versus saline treated group” value is “no significant difference”. For the same substance, in the data set with Sprague-Dawley (SD) rats, the “layer formation in the GI tract (microCT)” value was “did not form a layer”. For the same substance, in data set [6], the “number of aluminum ions per molecule (degree of polymerization of PAC)” value was found to be 56.1±3.0 aluminum per molecule. Further, the fraction dissolved result in data set [7] is reported as “Less than 5 w/w %”.

These data come from patent US11666597B2, “Water-activated mucoadhesive compositions to reduce intestinal absorption of nutrients” (The Brigham and Women's Hospital, Inc., priority 2015, dated 2023).
